Laboratory results reported in publication PMC10158552 (Biomedicine & Pharmacotherapy, 2023).

Tested on: SARS-CoV-2 Delta
Assay type: cell-based
Conditions: 346 µM compounds, 480 µg/ml antibodies

Substance	viral replication of SARS-CoV-2, basal treatment
Casirivimab: monoclonal Ab administered intravenously in patients, used as positive control (Roche)	show an antiviral effect
Imdevimab: monoclonal Ab administered intravenously in patients, used as positive control (Roche)	show an antiviral effect
